Results taken from PubChem BioAssay AID2060908 (Molecular Pharmacology Branch, DTP, NCI, 2025).

System: 186277-243-T-J2-PDC complex spheroids, viability
Experiment: Anticancer human tumor 186277-243-T-J2-PDC patient-derived colon adenocarcinoma cell line growth inhibition [RAS]
Details: for IC50: curve of first compound; for viability, T/C: stronger effect = lower value
Outline: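 Multi-cell-type spheroids: tumor cells plus HUVEC endothelial cells and mesenchymal stem cells. RAS-pathway inhibitors were combined with targeted agents, each dosed in half-log steps down from clinical Cmax, or from 10 microM when Cmax was unknown.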

[1] = second compound 0.000949 µM, first compound 0.0316 µM
[2] = second compound 0.000949 µM, first compound 0.1 µM
[3] = second compound 0.000949 µM, first compound 0.316 µM
[4] = second compound 0.000949 µM, first compound 1 µM
[5] = second compound 0.000949 µM, first compound 3.16 µM
[6] = second compound 0.000949 µM, first compound 10 µM
[7] = second compound 0.003 µM, first compound 0.0316 µM
[8] = second compound 0.003 µM, first compound 0.1 µM
[9] = second compound 0.003 µM, first compound 0.316 µM
[10] = second compound 0.003 µM, first compound 1 µM
[11] = second compound 0.003 µM, first compound 3.16 µM
[12] = second compound 0.003 µM, first compound 10 µM
[13] = second compound 0.00949 µM, first compound 0.0316 µM
[14] = second compound 0.00949 µM, first compound 0.1 µM
[15] = second compound 0.00949 µM, first compound 0.316 µM
[16] = second compound 0.00949 µM, first compound 1 µM
[17] = second compound 0.00949 µM, first compound 3.16 µM
[18] = second compound 0.00949 µM, first compound 10 µM
[19] = second compound 0.03 µM, first compound 0.0316 µM
[20] = second compound 0.03 µM, first compound 0.1 µM
[21] = second compound 0.03 µM, first compound 0.316 µM
[22] = second compound 0.03 µM, first compound 1 µM
[23] = second compound 0.03 µM, first compound 3.16 µM
[24] = second compound 0.03 µM, first compound 10 µM
[25] = second compound 0.0949 µM, first compound 0.0316 µM
[26] = second compound 0.0949 µM, first compound 0.1 µM
[27] = second compound 0.0949 µM, first compound 0.316 µM
[28] = second compound 0.0949 µM, first compound 1 µM
[29] = second compound 0.0949 µM, first compound 3.16 µM
[30] = second compound 0.0949 µM, first compound 10 µM
[31] = second compound 0.3 µM, first compound 0.0316 µM
[32] = second compound 0.3 µM, first compound 0.1 µM
[33] = second compound 0.3 µM, first compound 0.316 µM
[34] = second compound 0.3 µM, first compound 1 µM
[35] = second compound 0.3 µM, first compound 3.16 µM
[36] = second compound 0.3 µM, first compound 10 µM
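Also: spheroids exposed to compounds for 7 days before viability read.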

CC1(O)CCCC1n1c(=O)c(C(F)F)cc2cnc(NC3CCN(S(C)(=O)=O)CC3)nc21 (stereo not drawn) + CCn1c(-c2cccnc2C(C)OC)c2c3cc(ccc31)N1CCOC(CC(NC(=O)C(C(C)C)N(C)C(=O)C3(F)CCN(C(=O)C#CC(C)(C)N(C)C)CC3)C(=O)N3CCCC(N3)C(=O)OCC(C)(C)C2)C1
IC50 (second compound 0.000949 µM): 4.33 µM
IC50 (second compound 0.003 µM): 4.48 µM
IC50 (second compound 0.00949 µM): 4.38 µM
IC50 (second compound 0.03 µM): 4.35 µM
IC50 (second compound 0.0949 µM): 3.59 µM
IC50 (second compound 0.3 µM): 1.17 µM
viability, T/C [1]: 129%
viability, T/C [2]: 113%
viability, T/C [3]: 122%
viability, T/C [4]: 86.7%
viability, T/C [5]: 74.8%
viability, T/C [6]: 1.88%
viability, T/C [7]: 96.5%
viability, T/C [8]: 122%
viability, T/C [9]: 104%
viability, T/C [10]: 93.2%
viability, T/C [11]: 71.7%
viability, T/C [12]: 2.18%
viability, T/C [13]: 116%
viability, T/C [14]: 116%
viability, T/C [15]: 115%
viability, T/C [16]: 84.3%
viability, T/C [17]: 75.7%
viability, T/C [18]: 2.28%
viability, T/C [19]: 111%
viability, T/C [20]: 117%
viability, T/C [21]: 108%
viability, T/C [22]: 80.3%
viability, T/C [23]: 77.2%
viability, T/C [24]: 1.84%
viability, T/C [25]: 108%
viability, T/C [26]: 113%
viability, T/C [27]: 80.9%
viability, T/C [28]: 73.3%
viability, T/C [29]: 69%
viability, T/C [30]: 1.68%
viability, T/C [31]: 114%
viability, T/C [32]: 91.7%
viability, T/C [33]: 56.2%
viability, T/C [34]: 56.8%
viability, T/C [35]: 53.8%
viability, T/C [36]: 0.94%

CCC(CC)c1cc(NC2CCC(N)C2)n2nccc2n1 (stereo not drawn) + CCn1c(-c2cccnc2C(C)OC)c2c3cc(ccc31)N1CCOC(CC(NC(=O)C(C(C)C)N(C)C(=O)C3(F)CCN(C(=O)C#CC(C)(C)N(C)C)CC3)C(=O)N3CCCC(N3)C(=O)OCC(C)(C)C2)C1
IC50 (second compound 0.000949 µM): 1.73 µM
IC50 (second compound 0.003 µM): 1.78 µM
IC50 (second compound 0.00949 µM): 1.88 µM
IC50 (second compound 0.03 µM): 1.89 µM
IC50 (second compound 0.0949 µM): 1.54 µM
IC50 (second compound 0.3 µM): 1.21 µM
viability, T/C [1]: 105%
viability, T/C [2]: 91.8%
viability, T/C [3]: 90.4%
viability, T/C [4]: 91.2%
viability, T/C [5]: 4.89%
viability, T/C [6]: 0.44%
viability, T/C [7]: 96%
viability, T/C [8]: 86.7%
viability, T/C [9]: 98%
viability, T/C [10]: 101%
viability, T/C [11]: 4.58%
viability, T/C [12]: 0.37%
viability, T/C [13]: 99.4%
viability, T/C [14]: 87.2%
viability, T/C [15]: 91.9%
viability, T/C [16]: 103%
viability, T/C [17]: 12.8%
viability, T/C [18]: 0.38%
viability, T/C [19]: 107%
viability, T/C [20]: 107%
viability, T/C [21]: 97.7%
viability, T/C [22]: 113%
viability, T/C [23]: 4.88%
viability, T/C [24]: 0.35%
viability, T/C [25]: 111%
viability, T/C [26]: 103%
viability, T/C [27]: 108%
viability, T/C [28]: 77.6%
viability, T/C [29]: 4.31%
viability, T/C [30]: 0.37%
viability, T/C [31]: 102%
viability, T/C [32]: 108%
viability, T/C [33]: 98.2%
viability, T/C [34]: 59.5%
viability, T/C [35]: 3.42%
viability, T/C [36]: 0.42%

Cc1nc(N2CCC3(CC2)COC(C)C3N)c(CO)nc1Sc1ccnc(N)c1Cl (stereo not drawn) + CCn1c(-c2cccnc2C(C)OC)c2c3cc(ccc31)N1CCOC(CC(NC(=O)C(C(C)C)N(C)C(=O)C3(F)CCN(C(=O)C#CC(C)(C)N(C)C)CC3)C(=O)N3CCCC(N3)C(=O)OCC(C)(C)C2)C1
IC50 (second compound 0.000949 µM): > 10 µM
IC50 (second compound 0.003 µM): > 10 µM
IC50 (second compound 0.00949 µM): > 10 µM
IC50 (second compound 0.03 µM): > 10 µM
IC50 (second compound 0.0949 µM): > 10 µM
IC50 (second compound 0.3 µM): > 10 µM
viability, T/C [1]: 88.9%
viability, T/C [2]: 85.4%
viability, T/C [3]: 111%
viability, T/C [4]: 104%
viability, T/C [5]: 141%
viability, T/C [6]: 131%
viability, T/C [7]: 91.8%
viability, T/C [8]: 100%
viability, T/C [9]: 98.2%
viability, T/C [10]: 114%
viability, T/C [11]: 133%
viability, T/C [12]: 130%
viability, T/C [13]: 99.9%
viability, T/C [14]: 130%
viability, T/C [15]: 105%
viability, T/C [16]: 113%
viability, T/C [17]: 132%
viability, T/C [18]: 128%
viability, T/C [19]: 92.3%
viability, T/C [20]: 110%
viability, T/C [21]: 108%
viability, T/C [22]: 126%
viability, T/C [23]: 137%
viability, T/C [24]: 116%
viability, T/C [25]: 98.2%
viability, T/C [26]: 123%
viability, T/C [27]: 117%
viability, T/C [28]: 127%
viability, T/C [29]: 137%
viability, T/C [30]: 101%
viability, T/C [31]: 122%
viability, T/C [32]: 114%
viability, T/C [33]: 107%
viability, T/C [34]: 92.9%
viability, T/C [35]: 92.1%
viability, T/C [36]: 62.8%

NC1c2ccccc2OC12CCN(c1cnc3c(N4CCCc5ncccc54)n[nH]c3n1)CC2 (stereo not drawn) + CCn1c(-c2cccnc2C(C)OC)c2c3cc(ccc31)N1CCOC(CC(NC(=O)C(C(C)C)N(C)C(=O)C3(F)CCN(C(=O)C#CC(C)(C)N(C)C)CC3)C(=O)N3CCCC(N3)C(=O)OCC(C)(C)C2)C1
IC50 (second compound 0.000949 µM): > 10 µM
IC50 (second compound 0.003 µM): > 10 µM
IC50 (second compound 0.00949 µM): > 10 µM
IC50 (second compound 0.03 µM): > 10 µM
IC50 (second compound 0.0949 µM): > 10 µM
IC50 (second compound 0.3 µM): 4.09 µM
viability, T/C [1]: 84.6%
viability, T/C [2]: 102%
viability, T/C [3]: 114%
viability, T/C [4]: 122%
viability, T/C [5]: 109%
viability, T/C [6]: 70.3%
viability, T/C [7]: 108%
viability, T/C [8]: 96.5%
viability, T/C [9]: 119%
viability, T/C [10]: 119%
viability, T/C [11]: 104%
viability, T/C [12]: 74.6%
viability, T/C [13]: 100%
viability, T/C [14]: 110%
viability, T/C [15]: 121%
viability, T/C [16]: 119%
viability, T/C [17]: 104%
viability, T/C [18]: 66.9%
viability, T/C [19]: 111%
viability, T/C [20]: 89%
viability, T/C [21]: 117%
viability, T/C [22]: 114%
viability, T/C [23]: 105%
viability, T/C [24]: 76%
viability, T/C [25]: 102%
viability, T/C [26]: 94.1%
viability, T/C [27]: 112%
viability, T/C [28]: 91.2%
viability, T/C [29]: 83.4%
viability, T/C [30]: 60.8%
viability, T/C [31]: 94.5%
viability, T/C [32]: 88.5%
viability, T/C [33]: 75.5%
viability, T/C [34]: 65.9%
viability, T/C [35]: 54.6%
viability, T/C [36]: 38.3%
